Test results published in ChEMBL document CHEMBL1131327, “Selective Pneumocystis carinii dihydrofolate reductase inhibitors: design, synthesis, and biological evaluation of new 2,4-diamino-5-substituted-furo[2,3-d]pyrimidines” (J Med Chem, 1998).

Tests used:
Dihydrofolate reductase [1] = biological target: T1, Dihydrofolate reductase (Rattus norvegicus, UniProt Q920D2)
T1 sequence (Q920D2 whole entry): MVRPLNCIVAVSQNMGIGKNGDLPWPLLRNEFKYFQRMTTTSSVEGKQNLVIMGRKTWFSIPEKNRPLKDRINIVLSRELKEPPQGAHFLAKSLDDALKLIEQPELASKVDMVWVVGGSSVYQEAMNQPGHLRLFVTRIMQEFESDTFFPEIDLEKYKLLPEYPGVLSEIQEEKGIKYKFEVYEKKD
Description: Inhibitory activity against dihydrofolate reductase from rat liver

[2] = biological target: T2, Bifunctional dihydrofolate reductase-thymidylate synthase (Toxoplasma gondii, UniProt Q07422)
T2 sequence (Q07422 whole entry): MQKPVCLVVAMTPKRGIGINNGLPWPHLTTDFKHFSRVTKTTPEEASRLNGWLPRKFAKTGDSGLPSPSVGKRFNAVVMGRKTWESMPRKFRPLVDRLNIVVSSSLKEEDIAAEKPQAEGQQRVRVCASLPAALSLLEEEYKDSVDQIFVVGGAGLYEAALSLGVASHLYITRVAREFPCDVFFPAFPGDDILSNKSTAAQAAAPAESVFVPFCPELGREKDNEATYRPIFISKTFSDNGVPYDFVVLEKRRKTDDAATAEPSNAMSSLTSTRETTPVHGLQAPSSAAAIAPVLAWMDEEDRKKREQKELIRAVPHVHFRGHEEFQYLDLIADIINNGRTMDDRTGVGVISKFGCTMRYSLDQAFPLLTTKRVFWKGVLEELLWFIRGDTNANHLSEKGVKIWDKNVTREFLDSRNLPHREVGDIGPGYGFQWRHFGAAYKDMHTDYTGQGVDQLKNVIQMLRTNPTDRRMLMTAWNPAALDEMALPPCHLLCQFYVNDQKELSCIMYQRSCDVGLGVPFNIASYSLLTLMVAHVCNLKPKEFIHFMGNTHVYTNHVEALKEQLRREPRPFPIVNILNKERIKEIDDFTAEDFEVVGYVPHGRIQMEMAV
Description: Inhibitory activity against dihydrofolate reductase from Toxoplasma gondii

Dihydrofolate reductase [3] = biological target: T3, Dihydrofolate reductase (Pneumocystis carinii, UniProt P16184)
T3 sequence (P16184 whole entry): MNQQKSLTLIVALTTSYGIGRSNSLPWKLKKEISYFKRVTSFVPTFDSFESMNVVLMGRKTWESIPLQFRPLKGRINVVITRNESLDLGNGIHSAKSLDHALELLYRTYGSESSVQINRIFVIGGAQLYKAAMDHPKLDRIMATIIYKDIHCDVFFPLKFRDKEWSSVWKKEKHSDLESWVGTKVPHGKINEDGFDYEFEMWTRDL
Description: Inhibitory activity against dihydrofolate reductase from pneumocystis carinii

CN(Cc1coc2nc(N)nc(N)c12)c1ccc(Cl)c(Cl)c1
IC50 (Dihydrofolate reductase [1]): > 27 µM | IC50 [2]: > 27 µM | IC50 (Dihydrofolate reductase [3]): 44.8 µM

CN(Cc1coc2nc(N)nc(N)c12)c1cc(Cl)c(Cl)c(Cl)c1
IC50 (Dihydrofolate reductase [3]): 284 µM

Nc1nc(N)c2c(CSc3ccccc3)coc2n1
IC50 [2]: > 26 µM | IC50 (Dihydrofolate reductase [3]): > 26 µM

CN(Cc1coc2nc(N)nc(N)c12)c1ccc2ccccc2c1
IC50 (Dihydrofolate reductase [1]): 14.6 µM | IC50 (Dihydrofolate reductase [3]): 14.8 µM

Nc1nc(N)c2c(CNc3ccccc3-c3ccccc3)coc2n1
IC50 (Dihydrofolate reductase [1]): 137 µM

COc1ccc(OC)c(N(C)Cc2coc3nc(N)nc(N)c23)c1
IC50 (Dihydrofolate reductase [1]): > 27 µM | IC50 [2]: > 27 µM | IC50 (Dihydrofolate reductase [3]): > 27 µM

Nc1nc(N)c2c(CNc3ccccc3Oc3ccccc3)coc2n1
IC50 (Dihydrofolate reductase [1]): > 12 µM | IC50 [2]: > 12 µM | IC50 (Dihydrofolate reductase [3]): > 12 µM

Nc1nc(N)c2c(CNc3cc(Cl)ccc3Cl)coc2n1
IC50 [2]: > 47 µM

Nc1nc(N)c2c(CNc3ccc(Oc4ccccc4)cc3)coc2n1
IC50 [2]: 32.4 µM

COc1cccc(NCc2coc3nc(N)nc(N)c23)c1
IC50 (Dihydrofolate reductase [1]): > 31.3 µM | IC50 [2]: > 31.3 µM | IC50 (Dihydrofolate reductase [3]): > 31.3 µM

Nc1nc(N)c2c(CNc3ccc4ccccc4c3)coc2n1
IC50 (Dihydrofolate reductase [1]): 36.5 µM | IC50 [2]: 38 µM | IC50 (Dihydrofolate reductase [3]): 41 µM
